Source: the supplement of paper PMC10307832

How the values were obtained:
Assay in all cases: relative viability (nuclei count vs DMSO), 5 days (fraction); higher = more cells survive
Midostaurin + Foretinib = compound: CO[C@@H]1[C@H](N(C)C(=O)c2ccccc2)C[C@H]2O[C@]1(C)n1c3ccccc3c3c4c(c5c6ccccc6n2c5c31)C(=O)NC4 [Midostaurin] + COc1cc2c(Oc3ccc(NC(=O)C4(C(=O)Nc5ccc(F)cc5)CC4)cc3F)ccnc2cc1OCCCN1CCOCC1 [Foretinib] (partner 0.25 µM)
Method in brief: (§1)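 Medians of duplicate plates are given as relative viability. That measure is the nuclei count in treated wells divided by the count in vehicle wells. Counts were taken on 4× images of lung cancer cell lines in 1536-well plates, 5 days after pin-tool dosing the day after seeding with one drug alone or a fixed anchor-drug dose plus five library-drug doses (not always all listed) in √10 steps.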

Midostaurin + Lapatinib = compound: CO[C@@H]1[C@H](N(C)C(=O)c2ccccc2)C[C@H]2O[C@]1(C)n1c3ccccc3c3c4c(c5c6ccccc6n2c5c31)C(=O)NC4 [Midostaurin] + CS(=O)(=O)CCNCc1ccc(-c2ccc3ncnc(Nc4ccc(OCc5cccc(F)c5)c(Cl)c4)c3c2)o1 [Lapatinib] (partner 2 µM)
Method in brief: as §1

Midostaurin + Decitabine = compound: CO[C@@H]1[C@H](N(C)C(=O)c2ccccc2)C[C@H]2O[C@]1(C)n1c3ccccc3c3c4c(c5c6ccccc6n2c5c31)C(=O)NC4 [Midostaurin] + Nc1ncn([C@H]2C[C@H](O)[C@@H](CO)O2)c(=O)n1 [Decitabine] (partner 2 µM)
Method in brief: as §1

[1] = compound: COc1cc(-c2nn([C@H]3CC[C@H](N4CCN(C(C)=O)CC4)CC3)c3ncnc(N)c23)ccc1NC(=O)c1cc2ccccc2n1C + CC1(C)CCC(c2ccc(Cl)cc2)=C(CN2CCN(c3ccc(C(=O)NS(=O)(=O)c4ccc(N[C@H](CCN5CCOCC5)CSc5ccccc5)c(S(=O)(=O)C(F)(F)F)c4)cc3)CC2)C1 [Navitoclax] (partner 0.5 µM)
Method in brief: as §1

[2] = compound: COc1cc(-c2nn([C@H]3CC[C@H](N4CCN(C(C)=O)CC4)CC3)c3ncnc(N)c23)ccc1NC(=O)c1cc2ccccc2n1C + Nc1ncn([C@H]2C[C@H](O)[C@@H](CO)O2)c(=O)n1 [Decitabine] (partner 2 µM)
Method in brief: as §1

Cell Line	relative viability (Midostaurin + Foretinib; first compound 0.01 µM)	relative viability (Midostaurin + Foretinib; first compound 0.03162 µM)	relative viability (Midostaurin + Foretinib; first compound 0.1 µM)	relative viability (Midostaurin + Foretinib; first compound 0.3162 µM)	relative viability (Midostaurin + Lapatinib; first compound 0.01 µM)	relative viability (Midostaurin + Lapatinib; first compound 0.03162 µM)	relative viability (Midostaurin + Lapatinib; first compound 0.1 µM)	relative viability (Midostaurin + Lapatinib; first compound 0.3162 µM)	relative viability (Midostaurin + Decitabine; first compound 0.01 µM)	relative viability (Midostaurin + Decitabine; first compound 0.03162 µM)	relative viability (Midostaurin + Decitabine; first compound 0.1 µM)	relative viability (Midostaurin + Decitabine; first compound 0.3162 µM)	relative viability ([1]; first compound 0.0128 µM)	relative viability ([1]; first compound 0.04048 µM)	relative viability ([1]; first compound 0.128 µM)	relative viability ([1]; first compound 1.28 µM)	relative viability ([2]; first compound 0.0128 µM)	relative viability ([2]; first compound 0.04048 µM)	relative viability ([2]; first compound 0.128 µM)	relative viability ([2]; first compound 1.28 µM)
NCI-H2009	1.22	1.09	0.88	1.16	0.811	0.823	0.902	0.861	0.426	0.353	0.351	0.361	1.16	1.16	1.2	1.14	0.352	0.386	0.33	0.357
NCI-H2023	0.856	0.984	0.686	0.631	0.851	0.621	0.777	0.555	0.226	0.273	0.223	0.201	0.999	1.06	1.02	0.835	0.219	0.219	0.218	0.228
NCI-H2085	1.02	0.845	0.863	0.555	0.759	0.857	0.823	0.639	0.54	0.525	0.607	0.523	1.16	1.23	1.19	1.01	0.579	0.436	0.58	0.553
NCI-H2087	1.15	0.942	1.21	0.775	1.09	0.889	1.02	1.4	0.276	0.323	0.357	0.194	1.03	0.908	1.02	1.2	0.331		0.198	0.225
NCI-H2126	1.19	1.14	1.04	1.15	0.753	0.687	0.808	0.833	0.549	0.644	0.612	0.613	0.858	0.863	0.79	0.641	0.612	0.551	0.608	0.457
NCI-H2170	1.05	0.951	0.477	0.735	0.29	0.259	0.255	0.285	0.5	0.495	0.441	0.456	0.652	0.749	0.579	0.453	0.533	0.53	0.479	0.471
NCI-H2347	1.2	1.13	0.841	1.5	0.883	0.863	0.956	1.11	0.599	0.584	0.567	0.611	0.864	0.794	0.769	0.858	0.618	0.612	0.57	0.639
NCI-H2405	1.05	0.985	1.01	0.96	1.03	1.27		1.11	0.721	0.8	0.774	0.778	0.744	0.639	0.729	0.265	0.861	0.55	0.657	0.362
NCI-H3122	0.926	0.94	0.718	0.976	0.981	1.02	0.957	1.02	0.394	0.395	0.531	0.551	1.03		1.01	0.869	0.44		0.447	0.318
PC-3 [JPC-3]	1.05	0.942	1.02	0.959	0.432	0.439	0.488	0.43	0.703	0.815	0.839	0.94	0.904	0.803	0.776	0.86	0.923	0.894	0.847	0.865
PC-14	0.984	0.924	0.909	0.899	0.345	0.289	0.302	0.266	0.184	0.204	0.227	0.114	1.05	1.05	0.987	1.21	0.203	0.186	0.216	0.326
RERF-LC-KJ	0.915	0.866	0.939	0.936	0.881	0.91	0.907	0.922	0.748	0.75	0.724	0.658	0.829	1.09	0.94	0.837	0.716	0.759	0.737	0.845
SK-LU-1	0.799	0.869	0.747	0.621	0.806	1.17	0.823	0.572	0.704	0.724	0.595	0.597	0.95	0.801	0.544	0.567	0.577	0.557	0.559	0.481
SK-MES-1	0.927	0.925	0.963	0.781	0.455	0.439	0.395	0.491	0.42	0.41	0.333	0.381	1.37	1.39	1.14	1.15	0.384	0.368	0.454	0.355
SW 1573	1.05	0.806	1.03	1.01	1.2	1.17	1.06	1.07	0.52	0.741	0.524	0.476	0.817	1.02	1.02	0.716	0.527	0.446	0.491	0.366
UMC-11	1.08	0.946	0.868	0.234	0.936	0.836	0.937	0.513	0.655	0.772	0.637	0.704	0.315	0.323	0.28	0.297	0.706	0.606	0.745	0.543
